In assay [1] the test system is Synechocystis sp. As to the kind of experiment: Inhibition of Synechocystis sp. recombinant diguanylate cyclase Slr1143 expressed in Escherichia coli DH5alpha at 100 uM after 2 mins.
Assay [2] can be described thus: Inhibition of Synechocystis sp. recombinant diguanylate cyclase Slr1143 expressed in Escherichia coli DH5alpha after 2 mins.

Each structure is given as a SMILES string. The source made the active and inactive calls. The rule behind the calls is not given here.

Regarding `O=c1ccn([C@H]2O[C@@H]3COP(=O)(O)O[C@@H]4[C@H](O)[C@@H](n5ccc(=O)[nH]c5=O)O[C@H]4COP(=O)(O)O[C@H]3[C@H]2O)c(=O)[nH]1`, in assay [1], the inhibition entry was “Active”.

On to `O=P1(O)OC[C@H]2O[C@H](n3cnc4c(O)ncnc43)[C@H](O)[C@@H]2OP(=O)(O)OC[C@@H]2O[C@H](n3cnc4c(O)ncnc43)[C@@H](O)[C@H]2O1`, for which the inhibition in assay [1] came to 60%. Further, in assay [2], the IC50 came out at 68.9 µM.
